The values that follow come from patent US10195185B2, “3-(1H-imidazo[4,5-C]pyridin-2-yl)-1H-pyrazolo[4,3-B]pyridines and therapeutic uses thereof” (Samumed, LLC, priority 2015, dated 2019).

Common to all, as to format: cell-based
The test system of experiment [1] is Wnt activity (Wnt-responsive human Sp5 promoter, TCF/LEF binding sites) in SW480 colon carcinoma cells. The experiment is described as follows: Wnt activity screening assay: Sp5-Luc luciferase reporter gene in SW480 cells. Particulars: for EC50: 10-point dose-response from 10 μM, incubated overnight; for inhibition at 10 µM: given for EC50 of >10 μM, read-out: percent inhibition at 10 μM. In outline: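 Luminescence (BrightGlo) was normalised to DMSO-only wells and fitted with a four-parameter variable-slope model for EC50; beyond 10 μM, % inhibition at 10 μM is given. Stable Sp5-Luc SW480 reporter cells, 4,000/well in 1% FBS, were exposed overnight at 37 °C to compounds, top 10 μM, 1:3 dilutions, 0.1% DMSO.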

Experiment [2] concerns Primary human fibroblasts derived from IPF patients (LL29 cells) treated with TGF-β1. The experiment is described as follows: Inhibition of the fibrotic process: αSMA staining in TGF-β1 treated fibroblasts. Particulars: Fibroblast, 96 h, LL29 fibroblasts treated with TGF-β1, 4 days; for inhibition at 10 µM: read-out: percent inhibition in brackets beside EC50 >10 μM. Summed up:
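LL29 cells plated in F12 with 1% FBS, compounds added as 11-point 1:2 series (10 μM to 1.87 nM, 0.1% DMSO), then TGF-β1 20 ng/mL; 4 days at 37 °C. Fixed, αSMA immunostained, imaged; SYTOX-positive cells excluded. % αSMA-positive cells normalized to TGF-β1 wells; EC50 by non-linear regression, or % inhibition at 10 μM.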

For a further experiment, the system named is SW480 colon cancer cells. Kind of experiment: Cell viability assay (CellTiter-Blue), four days. The settings on record: Homo sapiens, 96 h; for EC50: CellTiter-Blue cell viability; for inhibition at 10 µM: read-out: percent inhibition at 10 μM (given for EC50 of >10 μM). Summed up:
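SW480 cells (~2×10^3 per well) were exposed to compound for four days at 37 °C/5% CO2, using 8-point 1:3 dilutions from 10 μM to 0.0045 μM in duplicate. Viability was read by resazurin reduction (CellTiter-Blue, ~3 h, Ex 560/Em 590 nm). EC50 came from non-linear regression; above 10 μM, percent inhibition at 10 μM is given.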

Usually EC50 stands for the concentration giving half of the maximal effect. A low value points to higher potency in that assay. Broadly, the inhibition is the share of the control response that was lost under treatment. For the molecule `CC(C)CC(=O)Nc1cncc(-c2ccc3[nH]nc(-c4nc5c(-c6cccc(F)c6)nccc5[nH]4)c3n2)c1` [Compound 2, N-(5-(3-(4-(3-Fluorophenyl)-1H-imidazo[4,5-c]pyridin-2-yl)-1H-pyrazolo [4,3-b]pyridin-5-yl)pyridin-3-yl)-3-methylbutanamide], the EC50 in experiment [1] is 8630 nM; in experiment [2] it was above 10000 nM; in the experiment with SW480 colon cancer cells, 2700 nM. Also, the inhibition at 10 µM in experiment [2] worked out at 25.1%.

Take `CN(C)c1cncc(-c2ccc3[nH]nc(-c4nc5c(-c6cccc(F)c6)nccc5[nH]4)c3n2)c1` [Compound 7]: the values for the EC50 (in experiment [1]; in experiment [2]; in the experiment on SW480 colon cancer cells) were 379 nM, 387 nM and 944 nM, respectively.

For the molecule `CN(C)Cc1cncc(-c2ccc3[nH]nc(-c4nc5c(-c6cccc(F)c6)nccc5[nH]4)c3n2)c1` [Compound 13, 1-(5-(3-(4-(3-Fluorophenyl)-1H-imidazo[4,5-c]pyridin-2-yl)-1H-pyrazolo [4,3-b]pyridin-5-yl)pyridin-3-yl)-N,N-dimethylmethanamine], the values for the EC50 (in experiment [1]; in experiment [2]; with SW480 colon cancer cells) were 1060 nM, 1690 nM and 641 nM, respectively.

In the case of `Fc1cccc(-c2nccc3[nH]c(-c4n[nH]c5ccc(-c6ccncc6)nc45)nc23)c1` [Compound 18, 3-(4-(3-Fluorophenyl)-1H-imidazo[4,5-c]pyridin-2-yl)-5-(pyridin-4-yl)-1H-pyrazolo[4,3-b]pyridine], the values for the EC50 (in experiment [1]; in experiment [2]; in the experiment with SW480 colon cancer cells) were 843 nM, 4220 nM and 2780 nM, respectively.

For the molecule `O=C(Nc1cncc(-c2ccc3[nH]nc(-c4nc5c(-c6cccc(F)c6)nccc5[nH]4)c3n2)c1)C1CC1` [Compound 20, N-(5-(3-(4-(3-Fluorophenyl)-1H-imidazo[4,5-c]pyridin-2-yl)-1H-pyrazolo [4,3-b]pyridin-5-yl)pyridin-3-yl)cyclopropanecarboxamide], the EC50 (in experiment [1]; in experiment [2]; with SW480 colon cancer cells) was above 10000 nM in each case. Moreover, the inhibition at 10 µM in experiment [1] amounted to 14.7%; in experiment [2] it was 14.1%; in the experiment with SW480 colon cancer cells, 6%.

Turning to `CN(C)c1cncc(-c2ccc3[nH]nc(-c4nc5c(-c6cccs6)nccc5[nH]4)c3n2)c1` [Compound 343, N,N-Dimethyl-5-(3-(4-(thiophen-2-yl)-1H-imidazo[4,5-c]pyridin-2-yl)-1H-pyrazolo[4,3-b]pyridin-5-yl)pyridin-3-amine], the EC50 stood at 803 nM in experiment [1], 477 nM in experiment [2] and 455 nM with SW480 colon cancer cells.

For `CN(C)Cc1cncc(-c2ccc3[nH]nc(-c4nc5c(-c6cccs6)nccc5[nH]4)c3n2)c1` [Compound 349, N,N-dimethyl-1-(5-(3-(4-(thiophen-2-yl)-1H-imidazo[4,5-c]pyridin-2-yl)-1H-pyrazolo[4,3-b]pyridin-5-yl)pyridin-3-yl)methanamine], the EC50 in experiment [1] was 8020 nM; in experiment [2], 2630 nM; with SW480 colon cancer cells, 1270 nM.

Regarding `O=C(Nc1cncc(-c2ccc3[nH]nc(-c4nc5c(-c6cccs6)nccc5[nH]4)c3n2)c1)C1CC1` [Compound 356, N-(5-(3-(4-(Thiophen-2-yl)-1H-imidazo[4,5-c]pyridin-2-yl)-1H-pyrazolo [4,3-b]pyridin-5-yl)pyridin-3-yl)cyclopropanecarboxamide], the figures for the EC50 (in experiment [1]; in experiment [2]; in the experiment on SW480 colon cancer cells) were above 10000 nM, 5590 nM and above 10000 nM, respectively. Also, the inhibition at 10 µM came out at 4.1% in experiment [1] and 1.5% in the experiment on SW480 colon cancer cells.

Consider `Cc1ccc(-c2nccc3[nH]c(-c4n[nH]c5ccc(-c6cncc(N)c6)nc45)nc23)s1` [Compound 395, 5-(3-(4-(5-Methylthiophen-2-yl)-1H-imidazo[4,5-c]pyridin-2-yl)-1H-pyrazolo[4,3-b]pyridin-5-yl)pyridin-3-amine], for which the EC50 in experiment [1] stood at 50 nM; in experiment [2], 5070 nM; in the experiment with SW480 colon cancer cells it was 156 nM.

In the case of `Cc1ccc(-c2nccc3[nH]c(-c4n[nH]c5ccc(-c6cncc(NC(=O)C(C)C)c6)nc45)nc23)s1` [Compound 401, N-(5-(3-(4-(5-Methylthiophen-2-yl)-1H-imidazo[4,5-c]pyridin-2-yl)-1H-pyrazolo [4,3-b]pyridin-5-yl)pyridin-3-yl)isobutyramide], the EC50 in experiment [1] was above 10000 nM; in experiment [2], 2520 nM; in the experiment with SW480 colon cancer cells it was above 10000 nM. Besides, the inhibition at 10 µM in experiment [1] turned out to be 17.2%; with SW480 colon cancer cells it was 2.5%.

For the molecule `Cc1ccc(-c2nccc3[nH]c(-c4n[nH]c5ccc(-c6cncc(NC(=O)C7CCCC7)c6)nc45)nc23)s1` [Compound 414, N-(5-(3-(4-(5-Methylthiophen-2-yl)-1H-imidazo[4,5-c]pyridin-2-yl)-1H-pyrazolo[4,3-b]pyridin-5-yl)pyridin-3-yl)cyclopentanecarboxamide], the EC50 (in experiment [1]; in experiment [2]; in the experiment on SW480 colon cancer cells) was above 10000 nM each time. Also, the inhibition at 10 µM in experiment [1] came out at 23.8%; in experiment [2] it was 46.2%; with SW480 colon cancer cells, 0.4%.

With `CCNCc1cncc(-c2ccc3[nH]nc(-c4nc5c(-c6cc(F)cc(NCCN(C)C)c6)nccc5[nH]4)c3n2)c1` [Compound 454, N^1-(3-(2-(5-(5-((Ethylamino)methyl)pyridin-3-yl)-1H-pyrazolo[4,3-b]pyridin-3-yl)-1H-imidazo[4,5-c]pyridin-4-yl)-5-fluorophenyl)-N^2,N^2-dimethylethane-1,2-diamine], the EC50 is 9950 nM in experiment [1], 3680 nM in experiment [2] and 6600 nM with SW480 colon cancer cells.

On to `CC(C)Nc1cncc(-c2ccc3[nH]nc(-c4nc5c(-c6cc(F)cc(NCCN(C)C)c6)nccc5[nH]4)c3n2)c1` [Compound 460, N^1-(3-Fluoro-5-(2-(5-(5-(isopropylamino)pyridin-3-yl)-1H-pyrazolo[4,3-b]pyridin-3-yl)-1H-imidazo[4,5-c]pyridin-4-yl)phenyl)-N^2,N^2-dimethylethane-1,2-diamine], for which the EC50 in experiment [1] worked out at 1030 nM; in experiment [2], 732 nM; in the experiment on SW480 colon cancer cells, 585 nM.

`CCCCC(=O)Nc1cncc(-c2ccc3[nH]nc(-c4nc5c(-c6cc(F)cc(NCCN(C)C)c6)nccc5[nH]4)c3n2)c1` [Compound 467, N-(5-(3-(4-(3-((2-(Dimethylamino)ethyl)amino)-5-fluorophenyl)-1H-imidazo[4,5-c]pyridin-2-yl)-1H-pyrazolo[4,3-b]pyridin-5-yl)pyridin-3-yl)pentanamide]: the EC50 was above 10000 nM in experiment [1], 1190 nM in experiment [2] and above 10000 nM with SW480 colon cancer cells. For the same molecule, the inhibition at 10 µM (in experiment [1]; with SW480 colon cancer cells) was 0% each time.

Turning to `CN(C)CCNc1cc(F)cc(-c2nccc3[nH]c(-c4n[nH]c5ccc(-c6ccccn6)nc45)nc23)c1` [Compound 476, N^1-(3-Fluoro-5-(2-(5-(pyridin-2-yl)-1H-pyrazolo[4,3-b]pyridin-3-yl)-1H-imidazo[4,5-c]pyridin-4-yl)phenyl)-N^2,N^2-dimethylethane-1,2-diamine], the EC50 came out at 8650 nM in experiment [1], 1720 nM in experiment [2] and 6250 nM in the experiment on SW480 colon cancer cells.

For the molecule `Cc1ccncc1-c1ccc2[nH]nc(-c3nc4c(-c5cc(F)cc(CNS(C)(=O)=O)c5)nccc4[nH]3)c2n1` [Compound 481, N-(3-Fluoro-5-(2-(5-(4-methylpyridin-3-yl)-1H-pyrazolo[4,3-b]pyridin-3-yl)-1H-imidazo[4,5-c]pyridin-4-yl)benzyl)methanesulfonamide], the EC50 in experiment [1] was found to be 2370 nM; in experiment [2] it was 5000 nM; in the experiment with SW480 colon cancer cells it was 7140 nM.

Take `CS(=O)(=O)NCc1cc(F)cc(-c2nccc3[nH]c(-c4n[nH]c5ccc(-c6cncc(NC(=O)c7ccccc7)c6)nc45)nc23)c1` [Compound 487, N-(5-(3-(4-(3-Fluoro-5-(methylsulfonamidomethyl)phenyl)-1H-imidazo[4,5-c]pyridin-2-yl)-1H-pyrazolo[4,3-b]pyridin-5-yl)pyridin-3-yl)benzamide]: the EC50 (in experiment [1]; in experiment [2]; in the experiment with SW480 colon cancer cells) was above 10000 nM throughout. Moreover, the inhibition at 10 µM (in experiment [1]; in experiment [2]; in the experiment with SW480 colon cancer cells) was 0% in each case.

Consider `CCCC(=O)Nc1cncc(-c2ccc3[nH]nc(-c4nc5c(-c6cc(F)cc(CNS(C)(=O)=O)c6)nccc5[nH]4)c3n2)c1` [Compound 493, N-(5-(3-(4-(3-Fluoro-5-(methylsulfonamidomethyl)phenyl)-1H-imidazo[4,5-c]pyridin-2-yl)-1H-pyrazolo[4,3-b]pyridin-5-yl)pyridin-3-yl)butyramide], for which the EC50 (in experiment [1]; in experiment [2]; with SW480 colon cancer cells) was above 10000 nM in each case. The inhibition at 10 µM in experiment [1] was found to be 15.1%; in experiment [2], 0%; with SW480 colon cancer cells, 4.3%.
